Assay results published in patent US20140242093A1, “METHODS AND COMPOSITIONS FOR MODULATING THE INNATE IMMUNE RESPONSE AND/OR MYOGENESIS IN A MAMMALIAN SUBJECT” (FRED HUTCHINSON CANCER RESEARCH CENTER, priority 2011, published 2014).

Tested on: control human primary myoblasts
Test: Expression microarray of primary myoblasts transduced with lentivirus carrying DUX4-fl, DUX4-s or GFP
Protocol: Primary human myoblasts were collected and cultured as previously described (Snider et al., 2010). Primary myoblasts were maintained at or below 70% confluency for proliferation. For differentiation, cells were allowed to reach 95-100% confluency in growth medium. Once confluency was reached, the cells were changed to differentiation medium (F10 media supplemented with 1% horse serum, 10 μg/mL insulin, and 10 μg/mL transferrin, penicillin/streptomycin) and maintained for 4 days. Human RD cells were grown in DMEM in 10% bovine calf serum (Hyclone) and penicillin/streptomycin. The primary myoblasts were transduced with lentivirus carrying DUX-fl, DUX4- or GFP (MOI=15).
Expression microarrays were performed on the transduced cells at 24 hours after transduction as follows. […] Samples were analyzed by Illumina Human Whole Genome microarrays. Probe intensities were corrected, normalized, and summarized by the Lumi package of Bioconductor (Du et al., 2008). Differentially expressed genes were identified by the LIMMA package of Bioconductor (Wettenhall and Smyth, 2004). Gene set enrichment analysis (GSEA) was performed using the Bioconductor GOstats package (Falcon and Gentleman, 2007).

## DUX4-fl: full-length DUX4 protein (SEQ ID NO:110), expressed from lentiviral or pCS2 vectors or in vitro translated
Refseq NM_032166.2
  fc of ATRIP (expression array): −1.006
Refseq NM_032171.1
  CEP78 expression fc: 2.035
Refseq NM_032195.1
  SON expression fc: 2.055
Refseq NM_032239.2
  LARP1B expression fc: 1.858
Refseq NM_032286.2
  MED10 expression fc: 1.965
Refseq NM_032324.1
  C1orf57 fc: −1.117
Refseq NM_032377.3
  ELOF1 expression fc: 1.884
Refseq NM_032413.2
  fc of C15orf48 (expression array): −0.8681
Refseq NM_032471.4
  PKIB expression fc: 1.858
Refseq NM_032505.1
  KBTBD8 expression fc: 3.076
Refseq NM_032508.1
  TMEM185A expression fc: 2.292
Refseq NM_032510.3
  PARD6G fc: −1.161
Refseq NM_032565.2
  fc of EBPL (expression array): −1.006
Refseq NM_032592.3
  fc of ACCS (expression array): −1.038
Refseq NM_032626.5
  RBBP6 expression fc: 1.986
Refseq NM_032681.1
  SPRYD5 expression fc: 8.045
Refseq NM_032802.3
  fc of SPPL2A (expression array): −0.7524
Refseq NM_032827.4, cultured human skeletal muscle
  ATOH8 expression fc: −2.073
Refseq NM_032854.2
  CORO6 fc: −1.12
Refseq NM_032862.2
  fc of TIGD5 (expression array): −1.003
Refseq NM_032992.2
  CASP6 expression fc: 2.035
Refseq NM_033034.1
  TRIM5 fc: −1.114
Refseq NM_033255.2, cultured human skeletal muscle
  EPSTI1 expression fc: −4.12
Refseq NM_033285.2
  TP53INP1 fc: −1.138
Refseq NM_033294.2
  CASP1 fc: −1.17
Refseq NM_033405.2, cultured human skeletal muscle
  PRIC285 expression fc: −2.608
Refseq NM_033414.2
  ZNF622 expression fc: 2.406
Refseq NM_052839.2
  PANX2 expression fc: 3.831
Refseq NM_052865.2
  fc of C20orf72 (expression array): −1.04
Refseq NM_052942.2
  fc of GBP5 (expression array): −0.9094
Refseq NM_052947.3
  fc of ALPK2 (expression array): −0.3826
Refseq NM_053034.1
  fc of ANTXR1 (expression array): −1.013
Refseq NM_057089.2
  AP1S1 fc: −1.095
Refseq NM_057182.1
  CCNE1 expression fc: 1.863
Refseq NM_058229.2
  FBXO32 fc: −1.177
Refseq NM_058241.1
  CCNT2 expression fc: 1.876
Refseq NM_080546.3
  SLC44A1 fc: −1.132
Refseq NM_080592.2
  fc of C2orf28 (expression array): −1.029
Refseq NM_080677.1
  DYNLL2 expression fc: 2.736
Refseq NM_080731.1
  HOM-TES-103 fc: −1.065
Refseq NM_080740.3
  ZNF280A expression fc: 3.798
Refseq NM_080757.1, cultured human skeletal muscle
  C20orf127 expression fc: −2.098
Refseq NM_080841.2
  fc of PTPRA (expression array): −1.02
Refseq NM_080874.2
  ASB5 fc: −1.135
Refseq NM_133172.2, cultured human skeletal muscle
  APBB3 expression fc: −1.994
Refseq NM_133375.2
  fc of DIS3L (expression array): −1.005
Refseq NM_138409.1
  C6orf117 expression fc: 2.446
Refseq NM_138432.2
  fc of SDSL (expression array): −1.011
Refseq NM_138800.1
  TRIM43 expression fc: 5.806
Refseq NM_138809.3, cultured human skeletal muscle
  CMBL expression fc: −1.992
Refseq NM_139241.1
  fc of FGD4 (expression array): −0.5592
Refseq NM_139314.1
  ANGPTL4 fc: −1.064
Refseq NM_144614.2
  MBD3L2 expression fc: 7.623
Refseq NM_144616.2
  JSRP1 fc: −1.175
Refseq NM_144641.1
  fc of PPM1M (expression array): −1.015
Refseq NM_144695.2
  fc of C1orf58 (expression array): −0.4075
Refseq NM_144779.1
  FXYD5 fc: −1.065
Refseq NM_145018.2
  Cllorf82 expression fc: 2.531
Refseq NM_145057.2
  CDC42EP5 fc: −1.137
Refseq NM_145263.2, cultured human skeletal muscle
  SPATA18 expression fc: −1.989
Refseq NM_145279.4
  MOBKL2C fc: −1.106
Refseq NM_145288.1
  ZNF296 expression fc: 5.536
Refseq NM_145792.1
  fc of MGST1 (expression array): −1.032
Refseq NM_145798.2
  OSBPL7 fc: −1.145
Refseq NM_147184.1, cultured human skeletal muscle
  TP53I3 expression fc: −1.961
Refseq NM_152219.3
  fc of GJD3 (expression array): −1.028
Refseq NM_152282.3
  ACPL2 fc: −1.079
Refseq NM_152379.2
  fc of C1orf131 (expression array): −1.023
Refseq NM_152542.2
  fc of PPM1K (expression array): −0.146
Refseq NM_152589.1
  C12orf50 expression fc: 4.522
Refseq NM_152608.3
  C1orf55 expression fc: 2.049
Refseq NM_152649.1, cultured human skeletal muscle
  MLKL expression fc: −2.992
Refseq NM_152677.1
  ZSCAN4 expression fc: 8.322
Refseq NM_152703.2, cultured human skeletal muscle
  SAMD9L expression fc: −2.532
Refseq NM_152718.2, cultured human skeletal muscle
  VWCE expression fc: −3.317
Refseq NM_152783.3
  fc of D2HGDH (expression array): −1.031
Refseq NM_152877.1
  FAS fc: −1.133
Refseq NM_153000.3, cultured human skeletal muscle
  APCDD1 expression fc: −1.894
Refseq NM_153321.1
  PMP22 fc: −1.103
Refseq NM_153449.2
  SLC2A14 expression fc: 2.374
Refseq NM_153611.3, cultured human skeletal muscle
  CYBASC3 expression fc: −1.945
Refseq NM_170699.2
  GPBAR1 expression fc: 1.936
Refseq NM_170722.1
  NLRX1 fc: −1.167
Refseq NM_172002.3
  fc of HSCB (expression array): −1.009
Refseq NM_172070.2
  fc of ZNF650 (expression array): −1.016
Refseq NM_172374.1
  fc of IL4I1 (expression array): −0.7571
Refseq NM_173484.3
  KLF17 expression fc: 1.779
Refseq NM_173587.2
  fc of RCOR2 (expression array): −1.051
Refseq NM_173674.1
  fc of DCBLD1 (expression array): −0.667
Refseq NM_173701.1, cultured human skeletal muscle
  WARS expression fc: −1.917
Refseq NM_173824.2
  fc of C3orf38 (expression array): −0.5458
Refseq NM_174916.1
  fc of UBR1 (expression array): −0.08618
Refseq NM_174921.1
  fc of C4orf34 (expression array): −1.044
Refseq NM_174938.3
  FRMD3 fc: −1.116
Refseq NM_175617.3, cultured human skeletal muscle
  MT1E expression fc: −2.067
Refseq NM_175852.3
  TXLNA fc: −1.157
Refseq NM_176870.2, cultured human skeletal muscle
  MT1M expression fc: −2.921
Refseq NM_176895.1
  PPAP2A fc: −1.106
Refseq NM_177436.1
  CSE1L expression fc: 2.937
Refseq NM_177968.2
  PPM1B expression fc: 1.831
Refseq NM_178006.1
  fc of STARD13 (expression array): −1.001
Refseq NM_178314.2
  RILPL1 fc: −1.072
Refseq NM_181054.1
  HIF1A fc: −1.15
Refseq NM_181353.1
  ID1 fc: −1.166
Refseq NM_181435.4
  C1QTNF3 expression fc: 1.974
Refseq NM_181677.1
  PPP2R2B expression fc: 4.13
Refseq NM_181876.2
  PPP2R2C fc: −1.064
Refseq NM_182557.2
  BCL9L fc: −1.111
Refseq NM_182972.2
  fc of IRF2BP2 (expression array): −1.041
Refseq NM_182985.3
  fc of TRIM69 (expression array): −1.002
Refseq NM_184086.1
  fc of TRIM55 (expression array): −1.053
Refseq NM_184234.1
  RBM39 expression fc: 1.8
Refseq NM_194281.3
  INO80C expression fc: 1.98
Refseq NM_194285.2
  SPTY2D1 expression fc: 3.286
Refseq NM_194431.1
  fc of RNASE4 (expression array): −1.06
Refseq NM_197966.1
  BID fc: −1.078
Refseq NM_198055.1
  fc of MZF1 (expression array): −1.004
Refseq NM_198150.1
  fc of ARSK (expression array): −0.8435
Refseq NM_198291.1
  fc of SRC (expression array): −1.041
Refseq NM_198450.3
  fc of APOOL (expression array): −0.5757
Refseq NM_198459.2
  DENND2C expression fc: 2.609
Refseq NM_198479.2
  TPRX1 expression fc: 4.483
Refseq NM_198576.2, cultured human skeletal muscle
  AGRN expression fc: −2.612
Refseq NM_198594.1, cultured human skeletal muscle
  C1QTNF1 expression fc: −3.846
Refseq NM_198833.1
  fc of SERPINB8 (expression array): −0.1046
Refseq NM_198925.1, cultured human skeletal muscle
  SEMA4B expression fc: −1.94
Refseq NM_199001.1, cultured human skeletal muscle
  C9orf169 expression fc: −2.509
Refseq NM_199048.1
  T1560 expression fc: 2.769
Refseq NM_199139.1, cultured human skeletal muscle
  XAF1 expression fc: −3.622
Refseq NM_199161.1, cultured human skeletal muscle
  SAA1 expression fc: −4.138
Refseq NM_199181.2
  C20orf117 fc: −1.08
Refseq NM_199203.1
  fc of TMEM189-UBE2V1 (expression array): −1.036
Refseq NM_201554.1, cultured human skeletal muscle
  DGKA expression fc: −1.955
Refseq NM_201599.1
  fc of ZMYM3 (expression array): −1.022
Refseq NM_203301.1
  FBXO33 expression fc: 3.22
Refseq NM_203446.1
  SYNJ1 expression fc: 2.433
Refseq NM_207315.2
  fc of CMPK2 (expression array): −0.8826
Refseq NM_207352.2
  CYP4V2 fc: −1.159
Refseq NM_207380.1
  fc of C15orf52 (expression array): −1.016
Refseq NM_207465.1
  FLJ45337 expression fc: 3.685
Refseq NM_001001323.1
  ATP2B1 fc: −1.082
Refseq NM_001001692.1
  FLJ45139 expression fc: 2.451
Refseq NM_001001821.1
  OR2T34 expression fc: 4.519
Refseq NM_001001995.1
  fc of GPM6B (expression array): −0.3998
Refseq NM_001002006.1
  NT5C1B expression fc: 3.495
Refseq NM_001002010.1
  fc of NT5C3 (expression array): −0.6592
Refseq NM_001002814.1
  RAB11FIP1 expression fc: 1.987
Refseq NM_001003679.1
  fc of LEPR (expression array): −1
Refseq NM_001004328.1
  ZNF705A expression fc: 6.832
Refseq NM_001005464.2
  HIST2H3A expression fc: 4.945
Refseq NM_001005742.1
  GBA fc: −1.065
Refseq NM_001006610.1
  SIAH1 expression fc: 3.699
Refseq NM_001008213.1
  OPTN fc: −1.113
Refseq NM_001008539.2, cultured human skeletal muscle
  SLC7A2 expression fc: −2.482
Refseq NM_001008540.1
  CXCR4 expression fc: 2.004
Refseq NM_001009566.1
  fc of CLSTN1 (expression array): −1.009
Refseq NM_001009611.1
  PRAMEF4 expression fc: 7.06
Refseq NM_001010876.1
  C6orf191 expression fc: 2.091
Refseq NM_001010889.2
  PRAMEF6 expression fc: 5.826
Refseq NM_001010890.1
  PRAMEF9 expression fc: 7.131
Refseq NM_001012276.1
  PRAMEF8 expression fc: 3.701
Refseq NM_001012277.1
  PRAMEF7 expression fc: 7.631
